Laboratory results taken from patent US8175860B2, “Method of inhibiting the growth of Helicobacter pylori” (priority 2009, dated 2012).
pIC50, pKi: −log10 of the molar value. Where “and” joins values, the source holds several entries; their conditions need not be identical. Equal entries are not always repeated. Where two headings read alike, the source gives them in different places.

How the values were obtained:
Assay type in all cases: biochemical
[1] = target: HpSK (H. pylori shikimate kinase) (Helicobacter pylori, UniProt P56073); experiment: Shikimate kinase inhibitor activity assay (pyruvate kinase/lactate dehydrogenase coupled), HpSK; details: for inhibition mode with respect to shikimate (SKM): ATP fixed at 2.5 mM, shikimate varied; for inhibition mode with respect to ATP: shikimate fixed at 1.6 mM, ATP varied; for inhibitory effect against shikimate kinase (in words): preliminary screening at 50 μM
Sequence of HpSK (H. pylori shikimate kinase) (P56073 whole entry): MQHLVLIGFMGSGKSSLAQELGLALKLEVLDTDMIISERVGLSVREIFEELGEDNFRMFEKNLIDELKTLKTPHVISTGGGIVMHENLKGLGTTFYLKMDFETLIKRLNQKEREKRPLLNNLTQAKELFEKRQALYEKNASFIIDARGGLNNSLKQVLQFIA
Protocol: The shikimate kinase activity was determined by coupling the release of ADP from the shikimate kinase-catalyzed reaction to the oxidation of NADH using pyruvate kinase (EC 2.7.1.40) and lactate dehydrogenase (EC 1.1.1.27) as coupling enzymes. Shikimate-dependent oxidation of NADH was monitored by the decrease in A340 (ε=6,200 M^−1 cm^−1). The assay was carried out at 25° C. in a mixture containing 100 mM Tris/HCl/KOH buffer, pH 7.5, 50 mM KCl, 5 mM MgCl2, 1.6 mM shikimic acid, 2.5 mM ATP, 1 mM phosphoenolpyruvate, 0.1 mM NADH, 2.5 units of pyruvate kinase/ml, and 2.7 units of lactate dehydrogenase/ml. All assays were conducted in a 96-well microplate spectrophotometer (FLUOstar OPTIMA, BMG LABTECH). Kinetic parameters were obtained using nonlinear regression fitting to the Michaelis-Menten equation. The apparent Km values for each substrate were determined as follows: for ATP the shikimate concentration ([shikimate]) was maintained at 1.6 mM and the [ATP] varied in the range from 0.001 mM to 2.5 mM; for shikimate the [ATP] was maintained at 2.5 mM and the [shikimate] varied in the range from 0.005 to 1.6 mM. The kinetic data were fit to the appropriate equations using the program GraphPad Prism 4 (Software Inc., USA). The kinetic data for determining the Km values were fit to
using the program GraphPad Prism 4 where v was the initial velocity, Vmax was the maximum velocity, Km was the Michaelis constant and [S] was the substrate (shikimate or ATP) concentration. The IC50 value for HpSK inhibition by inhibitors was determined by fitting data to
where v was the initial velocity, Vmax was the maximum velocity, Vmin was the minimum velocity, [I] was the concentration of compounds and n was the Hill slope.
Using GEMDOCK virtual docking and pharmarcophore model, several compounds were selected to assay inhibitor activity for verifying the inhibiting effect on HpSK and MtSK enzyme. Based on the procedure of enzyme activity assay, the initial velocities of the enzyme activity were determined in the presence of compounds (50 μM) dissolved in dimethylsulfoxide (DMSO). The final DMSO concentration in all assay mixtures was 5% (v/v). The assay buffer contained 100 mM Tris/HCl/KOH (pH 7.5), 1.6 mM shikimic acid, 2.5 mM ATP. The reaction was initiated by the addition of the diluted HpSK and MtSK enzyme (85 nM). After the preliminary screening, several compounds were identified to inhibit HpSK and MtSK enzyme activity. The initial velocities of the enzyme activity were determined in the presence of various concentrations of these compounds to investigate the dose-dependent inhibition effects. IC50 values of these compounds were obtained by fitting the data to a sigmoid dose-response equation of the GraphPad Prism 4. Afterwards, inhibitor modality was determined by measuring the effects of inhibitor concentrations on the enzymatic activity as a function of substrate concentration. In the inhibition experiment where the ATP concentration was fixed at 2.5 mM, shikimate was a varied substrate (0.06, 0.12, 0.24, 0.48, and 0.96 mM) when the concentration of inhibitor was varied from 0 to 50 μM. In parallel, in the inhibition experiment where the shikimate concentration was fixed at 1.6 mM, ATP was a varied substrate (0.06, 0.12, 0.24, 0.48, and 0.96 mM) when the concentration of inhibitor was varied from 0 to 50 μM.

[2] = target: MtSK (M. tuberculosis shikimate kinase) (Mycobacterium tuberculosis, UniProt P9WPY3); experiment: Shikimate kinase inhibitor activity assay (pyruvate kinase/lactate dehydrogenase coupled), MtSK; details: for inhibition mode with respect to shikimate (SKM): ATP fixed at 2.5 mM, shikimate varied; for inhibition mode with respect to ATP: shikimate fixed at 1.6 mM, ATP varied; for inhibitory effect against shikimate kinase (in words): preliminary screening at 50 μM
Sequence of MtSK (M. tuberculosis shikimate kinase) (P9WPY3 whole entry): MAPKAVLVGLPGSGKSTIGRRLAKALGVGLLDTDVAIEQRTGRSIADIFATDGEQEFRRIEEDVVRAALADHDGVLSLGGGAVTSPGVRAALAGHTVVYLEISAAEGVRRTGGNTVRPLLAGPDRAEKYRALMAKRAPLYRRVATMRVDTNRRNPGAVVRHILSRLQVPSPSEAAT

[3] = target: T1, HpDHQS (dehydroquinate synthase of H. pylori) (Helicobacter pylori, UniProt P56081, I144T); experiment: HpDHQS inhibition assay (thiobarbiturate assay of residual DAHP); details: 1 μM HpDHQS, 37° C., pH 7.0
T1 construct: His tag (inferred from the pQE30 vector and nickel-ion purification); made in house; host or cells: E. coli JM109
T1 sequence (P56081 1-343 I144T): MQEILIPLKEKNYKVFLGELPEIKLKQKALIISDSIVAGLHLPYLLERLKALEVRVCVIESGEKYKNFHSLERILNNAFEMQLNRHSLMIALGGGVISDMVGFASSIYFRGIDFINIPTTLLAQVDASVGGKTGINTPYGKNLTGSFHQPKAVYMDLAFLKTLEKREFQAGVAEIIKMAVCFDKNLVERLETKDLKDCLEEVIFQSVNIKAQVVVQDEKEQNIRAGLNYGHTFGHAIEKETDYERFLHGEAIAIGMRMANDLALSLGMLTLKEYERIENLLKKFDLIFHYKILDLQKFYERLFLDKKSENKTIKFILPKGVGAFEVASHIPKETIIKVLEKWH
Protocol: The level of DAHP was determined by a thiobarbiturate assay method. All assays were conducted at 37° C. in a 200-μl solution containing 20 mM Bis-Tris propane buffer (pH 7.0), 0.5 mM DAHP, 0.02 mM cobalt chloride, 0.02 mM NAD^+ and 1 μM HpDHQS. The residual DAHP was oxidized by per-iodate to produce formylpyruvate, which then reacted with thiobarbiturate to yield a pink adduct, and this chromophore was monitored at A549 after extraction into cyclohexanone.
Compounds were prepared to 100 mM in dimethylsulfoxide (DMSO) solutions. A 5% DMSO control was included for each set of measurements. About 1 μM HpDHQS was added to the mixture containing the compound to be tested with the standard assay mixture. The test compounds were also evaluated whether they interfered the thiobarbiturate assay system in the absence of HpDHQS. The initial velocities were plotted against the inhibitor concentrations to obtain the IC50 by using the following equation A[I]=A[0]×{1−([I]/[I]+IC50)]} wherein A[I] was the enzyme activity with inhibitor concentration [I], and A[0] was the enzyme activity without the inhibitor.

[4] = with respect to ATP, read-out: αKi, ATP
[5] = with respect to shikimate, read-out: αKi, SKM
[6] = MtSK, with respect to ATP, read-out: αKi, ATP
[7] = MtSK, with respect to shikimate, read-out: αKi, SKM

Row | Molecule | pIC50 [1] | inhibition mode with respect to shikimate (SKM) [1] | inhibition mode with respect to ATP [1] | pKi [1, 4] | pKi [1, 5] | pIC50 ([2]; MtSK) | inhibition mode with respect to shikimate (SKM) ([2]; MtSK) | inhibition mode with respect to ATP ([2]; MtSK) | pKi [2, 6] | pKi [2, 7] | further results
1 | 5-((E)-(4-((E)-(2-benzyl-8-hydroxy-6-sulfonatonaphthalen-1-yl)diazenyl)phenyl)diazenyl)-2-hydroxybenzoate [Compound 7] | 5.21 | Competitive | Competitive | 5.71 | 5.62 | 5.56 | Competitive | Competitive | 6.14 | 5.98 | 
2 | 5-((E)-(4-((E)-(4-((E)-(2,4-diamino-5-methylphenyl)diazenyl)-3-methyl-2-sulfonatophenyl)diazenyl)phenyl)diazenyl)-2-hydroxybenzoate [Compound 6] | 5.32 | Competitive | Competitive | 5.98 | 5.76 | 5.82 | Competitive | Competitive | 6.49 | 6.18 | 
3 | O=C1c2cccc3cc([N+](=O)[O-])cc(c23)C(=O)N1c1ccc(S(=O)(=O)Nc2ccc(C(F)(F)F)cc2)cc1 [Compound 1, 4-(5-nitro-1,3-dioxo-1H-benzo[de]isoquinolin-2(3H)-yl)-N-(4-(trifluoromethyl)phenyl)benzenesulfonamide] | 4.10 |  |  |  |  | < 4.30 |  |  |  |  | 
4 | O=C(NNC(=O)C1c2ccccc2Oc2ccccc21)c1cccc(F)c1 [Compound 3, N′-(3-fluorobenzoyl)-9H-xanthene-9-carbohydrazide] | 4.40 |  |  |  |  | < 4.30 |  |  |  |  | 
5 | N=C(NO)c1ccc(Oc2cc(Cl)cc(Cl)c2)c([N+](=O)[O-])c1 [Compound 4, (Z)-4-(3,5-dichlorophenoxy)-N′-hydroxy-3-nitrobenzimidamide] | 4.05 |  |  |  |  | < 4.30 |  |  |  |  | 
6 | O=C(Nc1ccc2c(O)cc(S(=O)(=O)O)cc2c1)Nc1ccc2c(O)cc(S(=O)(=O)O)cc2c1 [Compound 5, 7,7′-carbonylbis(azanediyl)bis(4-hydroxynaphthalene-2-sulfonate)] | ≥ 5.00 and 5.11 | Noncompetitive | Competitive | 5.76 | 4.89 | 5.56 | Noncompetitive | Competitive | 6.46 | 5.57 | inhibition mode with respect to shikimate (SKM) ([1]; listed as NSC45174): noncompetitive; inhibition mode with respect to shikimate (SKM) ([2]; MtSK, listed as NSC45174): noncompetitive
7 | Cc1cc(/N=N/c2ccc(/N=N/c3ccc(/N=N/c4ccc(O)c(C(=O)O)c4)cc3)c(S(=O)(=O)O)c2C)c(N)cc1N [Compound 6, 5-((E)-(4-((E)-(4-((E)-(2,4-diamino-5-methylphenyl)diazenyl)-3-methyl-2-sulfonatophenyl)diazenyl)phenyl)diazenyl)-2-hydroxybenzoate] | ≥ 5.00 |  |  |  |  | ≥ 5.00 |  |  |  |  | 
8 | O=C(O)c1cc(/N=N/c2ccc(/N=N/c3c(Cc4ccccc4)ccc4cc(S(=O)(=O)O)cc(O)c34)cc2)ccc1O [Compound 7, 5-((E)-(4-((E)-(2-benzyl-8-hydroxy-6-sulfonatonaphthalen-1-yl)diazenyl)phenyl)diazenyl)-2-hydroxybenzoate] | ≥ 5.00 |  |  |  |  | ≥ 5.00 |  |  |  |  | 
9 | Nc1ccc2c(O)c(/N=N/c3ccc4c(O)cc(S(=O)(=O)O)cc4c3)c(S(=O)(=O)O)cc2c1 [Compound 8, (E)-7-amino-4-hydroxy-3-((5-hydroxy-7-sulfonatonaphthalen-2-yl)diazenyl)naphthalene-2-sulfonate] | 5.31 | Competitive | Competitive | 5.73 | 5.74 | 5.81 | Competitive | Competitive | 6.62 | 6.21 | inhibition mode with respect to shikimate (SKM) ([1]; listed as NSC136535): competitive; inhibition mode with respect to shikimate (SKM) ([2]; MtSK, listed as NSC136535): competitive
10 | N#C/C(=C/c1ccc(O)c(O)c1)C(=O)c1ccc(O)c(O)c1 [Compound 9, (Z)-2-(3,4-dihydroxybenzoyl)-3-(3,4-dihydroxyphenyl)acrylonitrile, reference compound] | 5.64 | Noncompetitive | Competitive | 5.51 | 5.27 |  | Noncompetitive | Competitive |  |  | inhibition mode with respect to shikimate (SKM) ([1]; listed as AG538): noncompetitive; inhibitory effect against shikimate kinase (in words) [1]: showed inhibitory results; inhibition mode with respect to shikimate (SKM) ([2]; MtSK, listed as AG538): noncompetitive; inhibitory effect against shikimate kinase (in words) ([2]; MtSK): showed inhibitory results
11 | O=C1Nc2ccc(I)cc2/C1=C/c1cc(Br)c(O)c(Br)c1 [Compound 10, (Z)-3-(3,5-dibromo-4-hydroxybenzylidene)-5-iodoindolin-2-one, reference compound] | 4.50 |  |  |  |  |  |  |  |  |  | inhibitory effect against shikimate kinase (in words) [1]: showed inhibitory results; pIC50 [2]: 4.53; inhibitory effect against shikimate kinase (in words) ([2]; MtSK): showed inhibitory results
12 | CC1CCc2c(sc(NC(=O)CSc3nc4ccccc4s3)c2C#N)C1 (centres unmarked) [HTS11955, 2-(1,3-benzothiazol-2-ylsulfanyl)-N-(3-cyano-6-methyl-4,5,6,7-tetrahydro-1-benzothiophen-2-yl)acetamide] |  |  |  |  |  |  |  |  |  |  | pIC50 [3]: 4.21
13 | CSc1c(C#N)c(N)nc(SCC(=O)c2cccc([N+](=O)[O-])c2)c1C#N [RH00573, 2-amino-4-methylsulfanyl-6-[2-(3-nitrophenyl)-2-oxoethyl]sulfanylpyridine-3,5-dicarbonitrile] |  |  |  |  |  |  |  |  |  |  | pIC50 [3]: 4.07
